We go through five molecules from patent US12281149B2, “Modulators of G-protein coupled receptors” (priority 2021, dated 2025).

What all share (format): cell-based
Test [1] deals with T1, GLP-1 receptor (Homo sapiens, UniProt P43220). Briefly: PathHunter β-arrestin assay, GLP-1 receptor. More on the design: host or cells: PathHunter CHO-K1 GLP1R β-Arrestin Cell Line.
Test [2] concerns the target T2, GIP receptor (Homo sapiens, UniProt P48546).
T2 sequence (P48546 22-466): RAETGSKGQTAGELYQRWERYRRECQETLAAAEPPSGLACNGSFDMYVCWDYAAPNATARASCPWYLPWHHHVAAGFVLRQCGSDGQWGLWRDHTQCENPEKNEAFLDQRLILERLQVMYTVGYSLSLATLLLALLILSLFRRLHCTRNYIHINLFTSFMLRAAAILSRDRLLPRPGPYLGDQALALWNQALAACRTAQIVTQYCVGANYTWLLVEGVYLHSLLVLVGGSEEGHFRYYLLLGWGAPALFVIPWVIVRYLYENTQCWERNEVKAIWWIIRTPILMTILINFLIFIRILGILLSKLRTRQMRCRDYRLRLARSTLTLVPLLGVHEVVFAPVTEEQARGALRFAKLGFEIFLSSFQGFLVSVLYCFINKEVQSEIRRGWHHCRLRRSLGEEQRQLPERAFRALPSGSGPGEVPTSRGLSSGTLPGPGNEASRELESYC
Briefly: HitHunter cAMP assay, GIP receptor. The note with it: for Emax: CHO cells, cAMP, normalized to maximum signal from GIP (high) and DMSO (low), read-out: Emax GIP-1R. On the technique in general: Changes in cAMP serve as a functional read-out for many G protein-coupled receptors.

The target in test [3] is T2, GIP receptor. Nature of the test: PathHunter β-arrestin assay, GIP receptor. More on the design: host or cells: PathHunter CHO-K1 GIPR β-Arrestin Cell Line.
The target of test [4] is T1, GLP-1 receptor. Nature of the test: HitHunter cAMP assay, GLP-1 receptor. The note with it: for Emax: CHO cells, cAMP, normalized to maximum signal from GLP-1 (high) and DMSO (low), read-out: Emax GLP-1R.
Where [5] appears, read: β-arrestin-2 recruitment, PathHunter CHO-K1 GLP1R β-Arrestin Cell Line, 90 min at 37° C., normalized to GLP-1, read-out: GLP-1R β Arrestin EC50.
Setting [6] is: CHO cells stably expressing GIP receptor, cAMP accumulation, 30 min, read-out: EC50 GIP-1R.
The mark [7] stands for this setting: β-arrestin-2 recruitment, PathHunter CHO-K1 GIPR β-Arrestin Cell Line, 90 min at 37° C., normalized to GIP, read-out: GIPR β Arrestin EC50.
[8] abbreviates: CHO cells stably expressing human GLP-1 receptor, cAMP accumulation, 30 min, read-out: EC50 GLP-1R.

*1 amine or outer side, *2 acyl side, *3 side chain or, on linkers, in order; H or OH if unused. Where a SMILES comes first, the peptide text is derived from it. Side-chain parts run from the residue outwards. [ ]: non-standard residue; d: D form. The star is where a group is joined. Isobutyryl(2-(3-CN-5-F-Ph)) = CC(C)(C(=O)*)c1cc(F)cc(C#N)c1; C20 diacid = O=C(O)CCCCCCCCCCCCCCCCCCC(=O)*; αMePhe(2-F) = C[C@](N)(Cc1ccccc1F)C(=O)O; γGlu = O=C(O)[C@H](CCC(=O)[*:2])N[*:1]; X58 = Cc1cc(F)cc(C(C)(C)C(=O)*)c1; αMeL = CC(C)C[C@](C)(N)C(=O)O; Orn = NCCC[C@H](N)C(=O)O; AEEA = NCCOCCOCC(=O)O; Aib = CC(C)(N)C(=O)O; βAla = NCCC(=O)O

The EC50 is the midpoint of the concentration-response curve. One may read the Emax as the size of the effect at its maximum, as opposed to the concentration needed.

T1 sequence (P43220 24-463): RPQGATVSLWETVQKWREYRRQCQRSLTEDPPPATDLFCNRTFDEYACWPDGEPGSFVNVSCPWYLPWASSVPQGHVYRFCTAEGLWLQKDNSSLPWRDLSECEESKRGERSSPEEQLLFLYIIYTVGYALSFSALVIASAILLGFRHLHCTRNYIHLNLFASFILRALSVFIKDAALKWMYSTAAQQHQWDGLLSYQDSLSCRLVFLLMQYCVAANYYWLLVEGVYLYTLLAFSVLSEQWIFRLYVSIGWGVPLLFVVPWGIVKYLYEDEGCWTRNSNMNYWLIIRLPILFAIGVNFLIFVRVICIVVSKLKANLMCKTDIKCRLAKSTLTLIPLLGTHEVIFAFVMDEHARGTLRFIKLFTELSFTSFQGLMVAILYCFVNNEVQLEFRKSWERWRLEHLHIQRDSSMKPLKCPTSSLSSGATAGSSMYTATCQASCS

As to `CC[C@H](C)[C@H](NC(=O)[C@H](CC(C)C)NC(=O)[C@H](Cc1ccc(O)cc1)NC(=O)[C@@H](CCC(=O)O)NC(=O)[C@@H](NC(=O)[C@H](Cc1ccccc1)NC(=O)[C@H](CCC(=O)O)NC(=O)C(C)(C)NC(=O)[C@H](CCC(N)=O)NC(=O)[C@H](C)NC(=O)[C@H](CCCCNC(=O)COCCOCCNC(=O)COCCOCCNC(=O)CC[C@H](NC(=O)CCCCCCCCCCCCCCCCCCC(=O)O)C(=O)O)NC(=O)[C@H](CCCN)NC(=O)[C@H](CC(=O)O)NC(=O)[C@H](CC(C)C)NC(=O)[C@](C)(CC(C)C)NC(=O)[C@@H](NC(=O)[C@H](CO)NC(=O)[C@H](Cc1ccc(O)cc1)NC(=O)[C@H](CC(=O)O)NC(=O)[C@H](CO)NC(=O)[C@@H](NC(=O)[C@](C)(Cc1ccccc1F)NC(=O)[C@@H](NC(=O)CNC(=O)[C@H](CCC(=O)O)NC(=O)CCNC(=O)C(C)(C)c1cc(F)cc(C#N)c1)[C@@H](C)O)[C@@H](C)O)[C@@H](C)CC)[C@@H](C)CC)C(=O)N[C@@H](CCC(=O)O)C(=O)NCC(=O)NCC(=O)N1CCC[C@H]1C(=O)N[C@@H](CO)C(=O)N[C@@H](CO)C(=O)NCC(=O)N[C@@H](C)C(=O)N1CCC[C@H]1C(=O)N1CCC[C@H]1C(=O)N1CCC[C@H]1C(=O)N[C@@H](CO)C(N)=O` [Compound 140] ({Isobutyryl(2-(3-CN-5-F-Ph))-βAla}-EGT[αMePhe(2-F)]TSDYSI[αMeL]LD[Orn]K([AEEA-AEEA-γGlu-C20 diacid])AQ[Aib]EFI[dE]YLIEGGPSSGAPPPS-NH2), the 50% effective concentration (EC50) on GLP-1 receptor [1] (setting [5]) is > 1000 nM; on GIP receptor [2] (setting [6]) it was < 0.1 nM; at GIP receptor [3] (setting [7]), < 1000 nM; at GLP-1 receptor [4] (setting [8]), < 0.1 nM. The Emax came to 108% on GIP receptor [2] and 104% at GLP-1 receptor [4].
`CC[C@H](C)[C@H](NC(=O)[C@H](CO)NC(=O)[C@H](Cc1ccc(O)cc1)NC(=O)[C@H](CC(=O)O)NC(=O)[C@H](CO)NC(=O)[C@@H](NC(=O)[C@](C)(Cc1ccccc1F)NC(=O)[C@@H](NC(=O)CNC(=O)[C@H](CCC(=O)O)NC(=O)CCNC(=O)C1(c2ccc(Cl)cc2)CCCC1)[C@@H](C)O)[C@@H](C)O)C(=O)N[C@@H](Cc1ccc(O)cc1)C(=O)N[C@@H](CC(C)C)C(=O)N[C@@H](CC(=O)O)C(=O)N[C@@H](CCCCN)C(=O)N[C@@H](CCC(N)=O)C(=O)N[C@@H](C)C(=O)N[C@@H](C)C(=O)NC(C)(C)C(=O)N[C@@H](CCC(=O)O)C(=O)N[C@@H](Cc1ccccc1)C(=O)N[C@H](C(=O)N[C@@H](CC(N)=O)C(=O)N[C@@H](Cc1c[nH]c2ccccc12)C(=O)N[C@@H](CC(C)C)C(=O)N[C@@H](CC(C)C)C(=O)N[C@@H](C)C(=O)NCC(=O)NCC(=O)N1CCC[C@H]1C(=O)N[C@@H](CO)C(=O)N[C@@H](CO)C(=O)NCC(=O)N[C@@H](C)C(=O)N1CCC[C@H]1C(=O)N1CCC[C@H]1C(=O)N1CCC[C@H]1C(=O)N[C@@H](CO)C(=O)N[C@@H](CCCCNC(=O)COCCOCCNC(=O)COCCOCCNC(=O)CC[C@H](NC(=O)CCCCCCCCCCCCCCCCCCC(=O)O)C(=O)O)C(N)=O)C(C)C` [Compound 141]: the EC50 on GLP-1 receptor [1] (setting [5]) is > 1000 nM; on GIP receptor [2] (setting [6]), 0.1 to 1 nM; on GIP receptor [3] (setting [7]), < 1000 nM; on GLP-1 receptor [4] (setting [8]), 0.1 to 1 nM. For the same molecule, the Emax on GIP receptor [2] turned out to be 108%; on GLP-1 receptor [4], 97%.
For the molecule `CC[C@H](C)[C@H](NC(=O)[C@H](CO)NC(=O)[C@H](Cc1ccc(O)cc1)NC(=O)[C@H](CC(=O)O)NC(=O)[C@H](CO)NC(=O)[C@@H](NC(=O)[C@](C)(Cc1ccccc1F)NC(=O)[C@@H](NC(=O)CNC(=O)[C@H](CCC(=O)O)NC(=O)CCNC(=O)C1(c2ccccc2)CNC(=O)C1)[C@@H](C)O)[C@@H](C)O)C(=O)N[C@@H](Cc1ccc(O)cc1)C(=O)N[C@@H](CC(C)C)C(=O)N[C@@H](CC(=O)O)C(=O)N[C@@H](CCCCN)C(=O)N[C@@H](CCC(N)=O)C(=O)N[C@@H](C)C(=O)N[C@@H](C)C(=O)NC(C)(C)C(=O)N[C@@H](CCC(=O)O)C(=O)N[C@@H](Cc1ccccc1)C(=O)N[C@H](C(=O)N[C@@H](CC(N)=O)C(=O)N[C@@H](Cc1c[nH]c2ccccc12)C(=O)N[C@@H](CC(C)C)C(=O)N[C@@H](CC(C)C)C(=O)N[C@@H](C)C(=O)NCC(=O)NCC(=O)N1CCC[C@H]1C(=O)N[C@@H](CO)C(=O)N[C@@H](CO)C(=O)NCC(=O)N[C@@H](C)C(=O)N1CCC[C@H]1C(=O)N1CCC[C@H]1C(=O)N1CCC[C@H]1C(=O)N[C@@H](CO)C(=O)N[C@@H](CCCCNC(=O)COCCOCCNC(=O)COCCOCCNC(=O)CC[C@H](NC(=O)CCCCCCCCCCCCCCCCCCC(=O)O)C(=O)O)C(N)=O)C(C)C` (stereo partly drawn) [Compound 142], the EC50 at GLP-1 receptor [1] (setting [5]) is < 1000 nM; at GIP receptor [2] (setting [6]) it was < 0.1 nM; on GIP receptor [3] (setting [7]), < 1000 nM; at GLP-1 receptor [4] (setting [8]) it was 0.1 to 1 nM. In addition, the Emax on GIP receptor [2] and at GLP-1 receptor [4] was 99% throughout.
As to `CC[C@H](C)[C@H](NC(=O)[C@H](CO)NC(=O)[C@H](CCCCNC(=O)COCCOCCNC(=O)COCCOCCNC(=O)CC[C@H](NC(=O)CCCCCCCCCCCCCCCCCCC(=O)O)C(=O)O)NC(=O)[C@H](CC(=O)O)NC(=O)[C@H](CO)NC(=O)[C@@H](NC(=O)[C@H](Cc1ccccc1)NC(=O)[C@@H](NC(=O)CNC(=O)[C@H](CCC(=O)O)NC(=O)CCNC(=O)C(C)(C)c1cccc(C#N)c1)[C@@H](C)O)[C@@H](C)O)C(=O)N[C@@H](Cc1ccc(O)cc1)C(=O)N[C@@H](CC(C)C)C(=O)N[C@@H](CC(=O)O)C(=O)N[C@@H](CCCCN)C(=O)N[C@@H](CCC(N)=O)C(=O)N[C@@H](C)C(=O)N[C@@H](C)C(=O)NC(C)(C)C(=O)N[C@@H](CCC(=O)O)C(=O)N[C@@H](Cc1ccccc1)C(=O)N[C@H](C(=O)N[C@@H](CC(N)=O)C(=O)N[C@@H](Cc1c[nH]c2ccccc12)C(=O)N[C@@H](CC(C)C)C(=O)N[C@@H](CC(C)C)C(=O)N[C@@H](C)C(=O)NCC(=O)NCC(=O)N1CCC[C@H]1C(=O)N[C@@H](CO)C(=O)N[C@@H](CO)C(=O)NCC(=O)N[C@@H](C)C(=O)N1CCC[C@H]1C(=O)N1CCC[C@H]1C(=O)N1CCC[C@H]1C(=O)N[C@@H](CO)C(N)=O)C(C)C` [Compound 143], the EC50 was < 1000 nM at GLP-1 receptor [1], 10 to 100 nM at GIP receptor [2], > 1000 nM on GIP receptor [3] and < 0.1 nM on GLP-1 receptor [4]. Also, the values for the Emax at GIP receptor [2] and on GLP-1 receptor [4] were 100% and 101%, respectively.
As to `CC[C@H](C)[C@H](NC(=O)[C@H](CC(C)C)NC(=O)[C@H](Cc1c[nH]c2ccccc12)NC(=O)[C@H](CCC(N)=O)NC(=O)[C@@H](NC(=O)[C@H](Cc1ccccc1)NC(=O)[C@H](C)NC(=O)[C@H](CCCCNC(=O)COCCOCCNC(=O)COCCOCCNC(=O)CC[C@H](NC(=O)CCCCCCCCCCCCCCCCCCC(=O)O)C(=O)O)NC(=O)[C@H](CCC(N)=O)NC(=O)[C@H](C)NC(=O)[C@@H](NC(=O)[C@H](CCCCN)NC(=O)[C@H](CC(=O)O)NC(=O)[C@H](CC(C)C)NC(=O)C(C)(C)NC(=O)[C@@H](NC(=O)[C@H](CO)NC(=O)[C@H](Cc1ccc(O)cc1)NC(=O)[C@H](CC(=O)O)NC(=O)[C@H](CO)NC(=O)[C@@H](NC(=O)[C@H](Cc1ccccc1)NC(=O)[C@@H](NC(=O)CNC(=O)[C@H](CCC(=O)O)NC(=O)CCNC(=O)C(C)(C)c1cc(C)cc(F)c1)[C@@H](C)O)[C@@H](C)O)[C@@H](C)CC)[C@@H](C)CC)C(C)C)C(=O)N[C@@H](C)C(=O)NCC(=O)NCC(=O)N1CCC[C@H]1C(=O)N[C@@H](CO)C(=O)N[C@@H](CO)C(=O)NCC(=O)N[C@@H](C)C(=O)N1CCC[C@H]1C(=O)N1CCC[C@H]1C(=O)N1CCC[C@H]1C(=O)N[C@@H](CO)C(N)=O` [Compound 144] ({X58-βAla}-EGTFTSDYSI[Aib]LDKIAQK([AEEA-AEEA-γGlu-C20 diacid])AFVQWLIAGGPSSGAPPPS-NH2), the EC50 on GLP-1 receptor [1] (setting [5]) was > 1000 nM; at GIP receptor [2] (setting [6]), 1 to 10 nM; on GIP receptor [3] (setting [7]), > 1000 nM; on GLP-1 receptor [4] (setting [8]), < 0.1 nM. Moreover, the maximal response (Emax) came to 103% at GIP receptor [2] and 99% at GLP-1 receptor [4].
